{"source": "ChEMBL document CHEMBL1201862", "about": "“PubChem BioAssay data set” (2004)", "key": {"[1]": {"molecular_target": "T1, Polyadenylate-binding protein 1 (Homo sapiens, UniProt P11940)", "T1 sequence (P11940 whole entry)": "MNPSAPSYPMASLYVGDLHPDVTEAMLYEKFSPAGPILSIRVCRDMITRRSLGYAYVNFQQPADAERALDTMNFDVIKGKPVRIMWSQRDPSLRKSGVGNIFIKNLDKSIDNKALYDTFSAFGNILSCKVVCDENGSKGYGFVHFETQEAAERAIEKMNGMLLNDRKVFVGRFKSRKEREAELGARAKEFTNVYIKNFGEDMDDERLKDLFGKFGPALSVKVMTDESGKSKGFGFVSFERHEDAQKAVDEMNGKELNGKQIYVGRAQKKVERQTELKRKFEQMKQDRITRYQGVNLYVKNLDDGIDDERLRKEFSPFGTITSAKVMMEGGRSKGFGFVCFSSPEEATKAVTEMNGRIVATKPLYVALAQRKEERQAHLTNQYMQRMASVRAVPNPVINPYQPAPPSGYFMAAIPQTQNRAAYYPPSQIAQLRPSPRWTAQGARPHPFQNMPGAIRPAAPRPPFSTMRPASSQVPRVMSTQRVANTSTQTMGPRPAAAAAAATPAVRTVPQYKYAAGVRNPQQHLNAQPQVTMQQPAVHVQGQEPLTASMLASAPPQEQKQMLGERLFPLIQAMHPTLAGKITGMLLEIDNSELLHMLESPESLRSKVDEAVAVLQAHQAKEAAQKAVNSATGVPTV", "test": "MLLE binding blockers, Cy5 peptide tracer – biochemical, fluorescence polarization, Cy5-PAM2 peptide, secondary, miRNA deadenylation inhibitor project, dose response (AID 602260)", "type": "functional", "settings": "read-out: IC50_Mean"}, "[2]": {"molecular_target": "T1, Polyadenylate-binding protein 1", "test": "MLLE domain peptide-binding blockers, IC50 – biochemical, fluorescence polarization, FITC-PAM2 peptide, dose response (AID 602259)", "type": "functional", "settings": "read-out: IC50_Mean"}, "[3]": {"molecular_target": "Voltage-dependent T-type calcium channel subunit alpha-1H (Homo sapiens, UniProt O95180)", "sequence (O95180 whole entry)": "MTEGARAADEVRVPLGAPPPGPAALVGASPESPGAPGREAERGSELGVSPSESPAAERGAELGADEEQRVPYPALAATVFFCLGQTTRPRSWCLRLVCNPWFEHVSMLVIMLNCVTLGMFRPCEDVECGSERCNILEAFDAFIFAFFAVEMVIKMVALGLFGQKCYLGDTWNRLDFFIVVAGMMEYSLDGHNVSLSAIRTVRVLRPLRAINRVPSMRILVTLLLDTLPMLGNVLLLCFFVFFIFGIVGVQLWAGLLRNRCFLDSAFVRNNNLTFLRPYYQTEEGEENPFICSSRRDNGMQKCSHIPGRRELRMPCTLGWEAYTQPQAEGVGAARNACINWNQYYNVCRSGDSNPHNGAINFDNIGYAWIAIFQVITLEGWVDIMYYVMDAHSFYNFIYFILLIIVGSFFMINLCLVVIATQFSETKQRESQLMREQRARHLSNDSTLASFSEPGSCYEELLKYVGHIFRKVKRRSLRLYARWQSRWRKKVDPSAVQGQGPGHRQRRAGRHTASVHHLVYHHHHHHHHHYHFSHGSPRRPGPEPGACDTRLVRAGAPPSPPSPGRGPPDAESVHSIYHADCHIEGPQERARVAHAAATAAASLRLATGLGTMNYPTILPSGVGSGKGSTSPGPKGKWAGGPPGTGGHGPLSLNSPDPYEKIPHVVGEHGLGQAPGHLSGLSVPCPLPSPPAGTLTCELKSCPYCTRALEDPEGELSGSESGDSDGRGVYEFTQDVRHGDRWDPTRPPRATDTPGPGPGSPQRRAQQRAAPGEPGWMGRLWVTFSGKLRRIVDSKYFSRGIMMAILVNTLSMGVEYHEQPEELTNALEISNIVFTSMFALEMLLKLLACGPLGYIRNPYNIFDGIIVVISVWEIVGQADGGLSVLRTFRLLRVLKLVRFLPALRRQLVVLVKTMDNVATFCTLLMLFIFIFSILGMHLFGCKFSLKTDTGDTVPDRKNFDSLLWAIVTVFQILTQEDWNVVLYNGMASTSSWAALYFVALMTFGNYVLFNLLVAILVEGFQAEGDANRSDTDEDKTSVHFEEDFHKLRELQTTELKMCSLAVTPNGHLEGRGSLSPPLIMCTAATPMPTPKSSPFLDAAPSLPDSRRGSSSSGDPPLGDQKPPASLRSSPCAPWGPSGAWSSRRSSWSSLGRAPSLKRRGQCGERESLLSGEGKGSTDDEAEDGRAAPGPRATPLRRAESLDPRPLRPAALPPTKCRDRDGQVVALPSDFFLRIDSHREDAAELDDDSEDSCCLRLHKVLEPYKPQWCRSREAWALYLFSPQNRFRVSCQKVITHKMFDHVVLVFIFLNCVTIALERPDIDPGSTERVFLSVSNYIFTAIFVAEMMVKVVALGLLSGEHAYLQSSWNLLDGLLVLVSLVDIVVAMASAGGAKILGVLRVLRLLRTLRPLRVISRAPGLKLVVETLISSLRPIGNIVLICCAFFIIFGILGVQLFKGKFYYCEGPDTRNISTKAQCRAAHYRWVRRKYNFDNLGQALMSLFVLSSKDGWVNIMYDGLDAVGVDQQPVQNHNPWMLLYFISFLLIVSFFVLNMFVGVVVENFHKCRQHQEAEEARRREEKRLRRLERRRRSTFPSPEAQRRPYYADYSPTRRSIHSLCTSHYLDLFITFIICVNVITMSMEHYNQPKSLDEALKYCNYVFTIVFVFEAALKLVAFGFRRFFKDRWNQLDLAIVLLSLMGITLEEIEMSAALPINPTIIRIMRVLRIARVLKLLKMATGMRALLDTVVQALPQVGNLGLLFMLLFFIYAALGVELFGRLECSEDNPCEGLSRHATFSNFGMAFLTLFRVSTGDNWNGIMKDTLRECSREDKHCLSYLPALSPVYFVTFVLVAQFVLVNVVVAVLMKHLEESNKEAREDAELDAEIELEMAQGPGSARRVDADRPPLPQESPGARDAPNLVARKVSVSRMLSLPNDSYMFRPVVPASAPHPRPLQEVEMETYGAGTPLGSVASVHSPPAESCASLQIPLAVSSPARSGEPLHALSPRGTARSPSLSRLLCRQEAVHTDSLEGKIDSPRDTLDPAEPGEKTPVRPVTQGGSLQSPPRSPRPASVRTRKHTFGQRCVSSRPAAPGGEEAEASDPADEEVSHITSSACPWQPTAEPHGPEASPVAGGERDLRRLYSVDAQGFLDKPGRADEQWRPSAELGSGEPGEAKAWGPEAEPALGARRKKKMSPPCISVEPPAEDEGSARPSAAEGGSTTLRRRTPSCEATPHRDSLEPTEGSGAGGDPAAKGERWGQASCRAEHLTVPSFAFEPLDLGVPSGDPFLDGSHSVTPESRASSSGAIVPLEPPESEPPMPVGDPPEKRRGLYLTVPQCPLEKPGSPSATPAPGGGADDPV", "type": "functional"}, "[4]": {"test": "reduction of Shn3 3'UTR-driven luciferase in osteoblasts – cell-based, Clone20 osteoblasts, firefly luciferase, cherry-picked, dose response (AID 624132)", "type": "functional"}, "[5]": {"test": "loss of viability in HepG2 cells – cell-based, CellTiter-Glo, cherry-picked, cytotoxicity control for Shn3 inhibitor project, dose response (AID 624134)", "type": "functional"}, "[6]": {"test": "non-specific 3'UTR reporter inhibition in Clone20-Shn3RL – cell-based, Renilla luciferase, cherry-picked, counter-screen for Shn3 inhibitor project, dose response (AID 624133)", "type": "functional"}, "Cytochrome P450 3A4": {"molecular_target": "Cytochrome P450 3A4 (Homo sapiens, UniProt P08684)", "sequence (P08684 whole entry)": "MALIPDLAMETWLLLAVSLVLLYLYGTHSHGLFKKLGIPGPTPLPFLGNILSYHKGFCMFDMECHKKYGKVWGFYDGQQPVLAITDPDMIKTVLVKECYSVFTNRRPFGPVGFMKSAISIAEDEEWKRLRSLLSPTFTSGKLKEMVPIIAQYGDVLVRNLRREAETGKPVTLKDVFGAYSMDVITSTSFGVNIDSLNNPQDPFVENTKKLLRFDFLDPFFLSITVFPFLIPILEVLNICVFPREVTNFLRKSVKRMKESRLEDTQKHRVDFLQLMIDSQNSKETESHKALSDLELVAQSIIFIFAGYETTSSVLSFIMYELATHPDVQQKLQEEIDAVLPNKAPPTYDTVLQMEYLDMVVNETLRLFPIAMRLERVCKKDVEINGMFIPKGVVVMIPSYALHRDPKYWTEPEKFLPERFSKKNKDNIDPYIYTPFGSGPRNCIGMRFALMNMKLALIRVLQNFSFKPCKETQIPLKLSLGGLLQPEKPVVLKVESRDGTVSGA"}, "[7]": {"molecular_target": "T2, Microphthalmia-associated transcription factor (Homo sapiens, UniProt O75030)", "T2 sequence (O75030 whole entry)": "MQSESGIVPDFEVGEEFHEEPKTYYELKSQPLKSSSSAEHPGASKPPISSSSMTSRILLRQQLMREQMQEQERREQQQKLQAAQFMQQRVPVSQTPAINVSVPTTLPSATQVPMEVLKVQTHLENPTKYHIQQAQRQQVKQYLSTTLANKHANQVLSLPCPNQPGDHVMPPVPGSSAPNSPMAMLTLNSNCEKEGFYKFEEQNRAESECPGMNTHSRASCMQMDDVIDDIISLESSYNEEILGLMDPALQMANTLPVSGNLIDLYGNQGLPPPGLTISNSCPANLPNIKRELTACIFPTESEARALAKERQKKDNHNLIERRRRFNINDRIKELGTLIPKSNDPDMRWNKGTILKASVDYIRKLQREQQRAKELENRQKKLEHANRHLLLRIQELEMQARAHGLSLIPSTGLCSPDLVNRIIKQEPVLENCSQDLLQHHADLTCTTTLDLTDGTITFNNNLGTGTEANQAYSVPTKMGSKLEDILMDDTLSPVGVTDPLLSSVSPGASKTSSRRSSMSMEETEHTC", "test": "reducers of TRPM1 reporter luminescence, concentration series – cell-based, SK-MEL-5, cherry-picked, set 3, MITF inhibitor project, dose response (AID 493073)", "type": "functional"}, "[8]": {"test": "blockers of HIV-1 envelope-mediated cell-cell fusion – cherry-pick, dose response (AID 652057)", "type": "functional, cell-based"}, "[9]": {"test": "blockers of HIV-1 ZM109 envelope-driven cell-cell fusion – HeLa effector, CEM target cells, luciferase, cherry-pick, dose response (AID 652058)", "type": "functional, cell-based"}, "[10]": {"test": "HIV-1 AD8 envelope cell-cell fusion blockers – cherry-pick, dose response (AID 652062);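 also: luciferase signal from cell-cell fusion driven by HIV-1 clade B AD8 Env; potency is for inhibitors of fusion seen as a drop in luminescence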", "type": "functional, cell-based"}}, "note": "Calls of active or inactive are those of the source.", "data": [{"molecule": "CCOC(=O)C1CCCN(C(=O)c2ccccc2SCCOC)C1", "note": "(stereo unspecified);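 as to EC50: channel activity triggered by adding a high calcium stimulation buffer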", "values": [{"measurement": "IC50", "setting": "[1]", "result": "> 66 µM (inactive)"}, {"measurement": "IC50", "setting": "[2]", "result": "> 66 µM (inactive)"}]}, {"molecule": "N#CC(c1cccc(C(F)(F)F)c1)(c1ncc(C(F)(F)F)cc1Cl)N1CCOCC1", "note": "(stereo unspecified)", "values": [{"measurement": "EC50", "setting": "[3]", "result": "2.49 µM (active)"}]}, {"molecule": "CCN(CC)S(=O)(=O)c1ccc(N(C)Cc2ccc(C(F)(F)F)cc2)nc1", "values": [{"measurement": "EC50", "setting": "[3]", "result": "10.4 µM (active)"}, {"measurement": "AC50", "setting": "[4]", "result": "5.85 µM (active)"}, {"measurement": "AC50", "setting": "[5]", "result": "41.1 µM (active)"}, {"measurement": "AC50", "setting": "[6]", "result": "25.9 µM (active)"}]}, {"molecule": "c1ccc2c(c1)nnn2Cc1nnc2sc(-c3ccc4c(c3)OCCO4)nn12", "values": [{"measurement": "IC50", "setting": "[1]", "result": "> 66 µM (inactive)"}, {"measurement": "IC50", "setting": "[2]", "result": "> 66 µM (inactive)"}]}, {"molecule": "Cc1nc(N)nc(S)c1CCCNc1ccccc1", "values": [{"measurement": "IC50", "setting": "[1]", "result": "> 66 µM (inactive)"}, {"measurement": "IC50", "setting": "[2]", "result": "> 66 µM (inactive)"}, {"measurement": "AC50", "setting": "Cytochrome P450 3A4", "result": "6.31 µM (inconclusive)"}]}, {"molecule": "NC(=O)c1cc([N+](=O)[O-])ccc1NCc1ccc(N)cc1", "values": [{"measurement": "AC50", "setting": "[7]", "result": "1.41 µM (active)"}]}, {"molecule": "N=c1c(C(=O)NCc2ccco2)cc2c(=O)n3ccccc3nc2n1CC1CCCO1", "note": "(stereo unspecified)", "values": [{"measurement": "IC50", "setting": "[1]", "result": "> 66 µM (inactive)"}, {"measurement": "IC50", "setting": "[2]", "result": "39.5 µM (inactive)"}]}, {"molecule": "O=C(NC(Sc1ccc(Cl)cc1)C(=O)O)c1ccccc1", "note": "(stereo unspecified)", "values": [{"measurement": "IC50", "setting": "[1]", "result": "> 66 µM (inactive)"}, {"measurement": "IC50", "setting": "[2]", "result": "> 66 µM (inactive)"}]}, {"molecule": "C[C@H](CO)N1C[C@H](C)[C@H](CN(C)S(=O)(=O)c2ccc(F)cc2)Oc2cc(Br)ccc2S1(=O)=O", "values": [{"measurement": "AC50", "setting": "[8]", "result": "1.5 µM (active)"}, {"measurement": "AC50", "setting": "[9]", "result": "1.13 µM (active)"}, {"measurement": "AC50", "setting": "[10]", "result": "4.74 µM (active)"}]}, {"molecule": "C[C@@H]1CN([C@@H](C)CO)C(=O)c2cccc(NC(=O)C3CCCCC3)c2O[C@H]1CN(C)Cc1ccccc1", "values": [{"measurement": "AC50", "setting": "[8]", "result": "39.6 µM (active)"}, {"measurement": "AC50", "setting": "[9]", "result": "10.8 µM (active)"}, {"measurement": "AC50", "setting": "[10]", "result": "22.1 µM (active)"}]}, {"molecule": "CCCC#Cc1ccc2c(c1)O[C@H](CN(C)S(=O)(=O)c1cccc(F)c1)[C@H](C)CN([C@@H](C)CO)S2(=O)=O", "values": [{"measurement": "AC50", "setting": "[8]", "result": "25 µM (active)"}, {"measurement": "AC50", "setting": "[9]", "result": "15.2 µM (active)"}, {"measurement": "AC50", "setting": "[10]", "result": "25.9 µM (active)"}]}]}
